Square brackets hold non-standard residues; d marks the D form. Peptide text beside a SMILES is read from it. * marks the point of attachment. X2 = COc1cccc2c1C(=O)c1c(O)c3c(c(O)c1C2=O)C[C@@](O)(C(=O)CO)C[C@@H]3O[C@H]1C[C@H](NC(=O)OCCSSCCOC(=O)*)[C@H](O)[C@H](C)O1; 2Nal = N[C@@H](Cc1ccc2ccccc2c1)C(=O)O; d2Nal = N[C@H](Cc1ccc2ccccc2c1)C(=O)O; X1 = O=C1NC2CS[C@@H](CCCCC(=O)*)C2N1
Tests used:
[1] = tested on: mitochondria of HeLa cells; test: Mitochondrial co-localization confocal imaging with MitoTracker Deep Red; assay type: cell-based; settings: for co-localization coefficient with the commercial mitochondrial dye (MitoTracker Deep Red): HeLa cells, confocal imaging, 50 nM MitoTracker Deep Red
Experimental: The synthesized mitochondria-targeted fluorescent probes were analyzed by confocal imaging to detect the effect of the arginine number on the mitochondrial localization thereof.
Experimental method: Solid powders of mitochondria-targeted fluorescent probes 8-12 synthesized in Example 3 were dissolved in DMSO to prepare 2 mM test mother solutions, and HeLa cells were cultured in a culture medium (DMEM: FBS: penicillin-streptomycin dual antibody=9:1:0.1). The cells were inoculated in an 8-well imaging dish and cultured in a cell incubator containing 5% CO2 at 37° C. until the cell density reached 60%. After the culture medium was removed, the cells were incubated with the target compound for a specified time. The culture medium was then removed, and wash with PBS was conducted three times. Thereafter, 50 nM commercial mitochondrial probe MitoTracker Deep Red (50 nM) was further added to the culture dish for 15 minutes of continuous incubation. After the culture medium was removed, wash with PBS was conducted three times. Imaging on confocal microscope was then carried out. Blue channel tracker 1 was set, with the excitation wavelength being 405 nm and the emission band being 420-490 nm, and this channel was used to receive fluorescence emitted by the mitochondria-targeted peptide. Red channel tracker 2 was set, with the excitation wavelength being 640 nm and the emission band being 655-755 nm, and this channel was used to receive fluorescence emitted by MitoTracker Deep Red, a commercial mitochondrial dye. In addition, in a cell imaging experiment, green channel tracker 3 was set, with the excitation wavelength being 560 nm and the emission band being 580-620 nm, and this channel was used to receive fluorescence emitted by compound 13. Green channel tracker 4 was set, with the excitation wavelength being 488 nm and the emission band being 500-600 nm, and this channel was used to receive fluorescence emitted by compound 14.

Hela cells [2] = test: Determination of mitochondrial membrane potential MMP (JC-10 dye); assay type: cell-based; settings: 0-10 μM, 24 hours
Experimental: Cells were inoculated in a 384-well plate with a black transparent bottom and then cultured overnight in a cell incubator containing 5% CO2 at 37° C., and the cells were treated with prodrug 17 at a specified concentration for 24 hours. An MMP kit (JC-10 dye, MAK-160) was then used for treatment and measurement according to the test method as provided, wherein apoptotic/damaged cells were monitored using λex=490 nm and λem=525 nm, and normal cells were monitored using λex=540 nm and λem=590 nm.

normal CHO cells = test: Cytotoxicity test (MTT) on normal cells; assay type: cell-based; settings: various concentrations, 48 h
Experimental: (§1) Cells were inoculated in a 96-well plate and cultured overnight in a cell incubator containing 5% CO2 at 37° C. The cells were treated with prodrug 17 at various concentrations and cultured in a cell incubator containing 5% CO2 at 37° C. for 48 h. A commercial MTT assay kit was then used to measure the cell viability. The experiment was repeated three times, and the data were analyzed by GraphPad Prism 6.0 software.

Hela cells [3] = test: Drug release test of prodrug 17 in cells (fluorescence imaging); assay type: cell-based; settings: for localization in the cells: HeLa cells
Experimental: Hela cells were cultured in an 8-well imaging dish and then treated with prodrug 17 (1 μM) for a certain time (1 h, 2 h, 3 h and 5 h). After the culture medium was removed, the cells were washed with PBS, a fresh culture medium was used for replacement, and the treated cells were then photographed by a fluorescence microscope. In addition, the cells were directly co-incubated with compound 17 (1 μM) for 1 h and then incubated with exogenous GSH (2 mM) for another 1 h (totally 2 h of incubation with compound 17); the cells were pretreated with the GSH inhibitor BSO (5 mM) for 24 h and then incubated with compound 17 (1 μM) for 3 h; and the cells were pre-incubated with a tumor-targeted biotin ligand at various concentrations (1 mM or 2 mM) for 1 h and then co-incubated with compound 17 for 3 h. After the culture medium was removed, the cells were washed with PBS, a fresh culture medium was used for replacement, and a fluorescence microscope was then used to take an image, which was used as the control.

[4] = Drug release and stability test of prodrug 17 in PBS solution with or without GSH (fluorescence, HPLC, ESI-MS); assay type: physicochemical
Experimental: Prodrug 17 (5 mM stock solution in DMSO) was diluted with PBS to form a solution at an indicated concentration and then incubated at 37° C. with a glutathione (GSH) solution at a specified concentration (0-12 mM GSH for concentration-dependent study and 10 mM GSH for time-dependent study), and the fluorescence of the treated sample was monitored periodically at specific time points. The change in the fluorescence intensity of the sample reflected the drug release behavior of prodrug 17 under GSH activation. In addition, a chromatogram was detected by high performance liquid chromatography after co-incubation of prodrug 17 (20 μM) with GSH (10 mM) in a PBS solution at 37° C. for 6 h, and a mass spectrum of the reaction solution was detected by ESI-MS.

Hela cells [5] = test: Apoptosis detection (Annexin V-PE, flow cytometry); assay type: cell-based; settings: various concentrations, 24 h
Experimental: Cells were inoculated in a 35 mm culture dish. After culture overnight at 37° C., the cells were treated with prodrug 17 at a specified concentration for 24 h. The cells were then collected, rinsed with PBS, resuspended in 500 μL of 1×buffer, and quantitatively measured by a flow cytometer according to a method given by the apoptosis kit Annexin V-PE.

HeLa tumor cells = test: Cytotoxicity test (MTT) on tumor cells; assay type: cell-based; settings: various concentrations, 48 h
Experimental: as §1

Ac-Arg-Arg-L-Nal-D-Nal-Gly-Gly-Lys [MTP2]
co-localization coefficient with the commercial mitochondrial dye (MitoTracker Deep Red) [1]: 0.65

Ac-Arg-Arg-Arg-L-Nal-D-Nal-Gly-Gly-Lys [MTP3]
co-localization coefficient with the commercial mitochondrial dye (MitoTracker Deep Red) [1]: 0.84
co-localization coefficient with the commercial fluorescent probe after long co-incubation ([1]; after co-incubation with cells for up to 36 h): 0.70

COc1cccc2c1C(=O)c1c(O)c3c(c(O)c1C2=O)C[C@@](O)(C(=O)CO)C[C@@H]3O[C@H]1C[C@H](NC(=O)OCCSSCCOC(=O)NCCCC[C@H](NC(=O)CNC(=O)CNC(=O)[C@@H](Cc2ccc3ccccc3c2)NC(=O)[C@H](Cc2ccc3ccccc3c2)NC(=O)[C@H](CCCNC(=N)N)NC(=O)[C@H](CCCNC(=N)N)NC(=O)[C@H](CCCNC(=N)N)NC(=O)CCCC[C@@H]2SCC3NC(=O)NC32)C(N)=O)[C@H](O)[C@H](C)O1 (some centres unmarked) [prodrug 17] (X1-RRR[2Nal][d2Nal]GGK(X2)-NH2)
mitochondrial membrane potential change (Hela cells [2]): remarkable reduction in mitochondrial membrane potential
toxicity to normal cells (CHO cells) (normal CHO cells): almost no toxicity
uptake by and release in HeLa cells (Hela cells [3]; 1 μM, 1-5 h, fluorescence imaging): slowly taken up
cell fluorescence after pre-incubation with the GSH inhibitor BSO (Hela cells [3]; BSO 5 mM 24 h, then 1 μM for 3 h): almost no fluorescence
localization in the cells (Hela cells [3]; 1 μM, fluorescence imaging): mainly located in mitochondria
time at which fluorescence (drug release) reached the maximum value ([4]; 37° C., 10 mM GSH, PBS): about 8 hours
stability in PBS solution ([4]; PBS solution at 37° C. for 7 days, HPLC): no obvious compound degradation
GSH-responsive release detected by HPLC and ESI-MS ([4]; prodrug 20 μM, GSH 10 mM, PBS, 37° C., 6 h): released Dox and mitochondria-targeted peptide 16 could be clearly detected
induction of apoptosis (Hela cells [5]): induce cell death through cell apoptosis
mitochondrial targeting (co-localization imaging) ([1]; 1 μM in HeLa cells): excellent mitochondrial targeting properties
anti-tumor activity (cell viability of HeLa cells) (HeLa tumor cells): strong anti-tumor activity

Ac-Arg-Arg-Arg-Arg-Arg-L-Nal-D-Nal-Gly-Gly-Lys [MTPS]
co-localization coefficient with the commercial mitochondrial dye (MitoTracker Deep Red) [1]: 0.54

COc1cccc2c1C(=O)c1c(O)c3c(c(O)c1C2=O)C[C@@](O)(C(=O)CO)C[C@@H]3O[C@H]1C[C@H](N)[C@H](O)[C@H](C)O1 [Dox, doxorubicin, reference compound]
localization in the cells (Hela cells [3]; 1 μM, fluorescence imaging): mainly located in the nucleus

Ac-Arg-Arg-Arg-Arg-L-Nal-D-Nal-Gly-Gly-Lys [MTP4]
co-localization coefficient with the commercial mitochondrial dye (MitoTracker Deep Red) [1]: 0.68

— patent US20230041271A1, “Mitochondria-Targeted Polypeptide, Preparation Method thereof, and Use thereof” (Shenzhen Campus of Sun Yat-sen University, priority 2021, published 2023)
